# In US10188634B2, “3-(3H-imidazo[4,5-C]pyridin-2-yl)-1 H-pyrazolo[4,3-B]pyridines and therapeutic uses thereof” (Samumed, LLC, priority 2015, dated 2019):
# Legend:
# Assay type in all cases: cell-based
# SW480 colon cancer cells = experiment: Cell viability assay (CellTiter-Blue) in SW480 colon cancer cells; conditions: Homo sapiens, 96 h; for EC50: four days incubation, CellTiter-Blue cell viability; for inhibition at 10 µM: four days, CellTiter-Blue, read-out: percent inhibition at 10 μM (given for EC50 of >10 μM)
# In short: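 Four-day exposure of SW480 cells (~2×10^3/well) to compound from 10 μM down to 0.004 μM in 1:3 steps, in duplicate. Resorufin fluorescence from CellTiter-Blue after ~3 h served as the viability read-out. EC50 values came from nonlinear curve fits, with % inhibition at 10 μM given where EC50 >10 μM.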
# [1] = system: LL29 cells (primary human fibroblasts derived from IPF patients) treated with TGF-β1, α-smooth muscle actin; experiment: Inhibition of the fibrotic process: αSMA staining in TGF-β1 treated primary human fibroblasts from IPF patients (LL29 cells); conditions: Fibroblast, 96 h; for EC50: LL29 cells treated with TGF-β1 (20 ng/mL), 4 days; for inhibition at 10 µM: LL29 cells treated with TGF-β1, 4 days, read-out: percent inhibition in brackets (given for EC50 >10 μM)
# IL-6 in THP-1 cells = experiment: Inhibition of IL-6 in LPS-stimulated THP-1 human monocyte cells (HTRF); conditions: IL-6 HTRF; for EC50: 500 ng/mL LPS, 22 hours; for inhibition at 10 µM: LPS, read-out: percent inhibition in brackets (given for EC50 >10 μM)
# In short: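 IL-6 was quantified by HTRF ratio after LPS (500 ng/mL, 22 h) stimulation of THP-1 monocytes pretreated 2 h with compound, 10-point 1:3 dilutions from 10 μM, 0.1% DMSO. Cells were held in 1% FBS for 24 h beforehand. Values normalised to DMSO; four-parameter EC50, or % inhibition at 10 μM above that.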
SMILES,EC50 (SW480 colon cancer cells),EC50 [1],EC50 (IL-6 in THP-1 cells),inhibition at 10 µM (IL-6 in THP-1 cells),inhibition at 10 µM [1],inhibition at 10 µM (SW480 colon cancer cells)
"CCCC(=O)Nc1cncc(-c2ccc3[nH]nc(-c4nc5c(-c6ccsc6)cncc5[nH]4)c3n2)c1 [Compound 269, N-(5-(3-(7-(Thiophen-3-yl)-3H-imidazo[4,5-c]pyridin-2-yl)-1H-pyrazolo[4,3-b]pyridin-5-yl)pyridin-3-yl)butyramide]",3.44 µM,7.23 µM,> 10 µM,45.9%,–,–
"FC1(F)CCN(Cc2cncc(-c3ccc4[nH]nc(-c5nc6c(-c7ccsc7)cncc6[nH]5)c4n3)c2)C1 [Compound 278, 5-(5-((3,3-difluoropyrrolidin-1-yl)methyl)pyridin-3-yl)-3-(7-(thiophen-3-yl)-3H-imidazo[4,5-c]pyridin-2-yl)-1H-pyrazolo[4,3-b]pyridine]",1.02 µM,1.7 µM,5.79 µM,–,–,–
"CC(C)Nc1cncc(-c2ccc3[nH]nc(-c4nc5c(-c6ccoc6)cncc5[nH]4)c3n2)c1 [Compound 292, 5-(3-(7-(Furan-3-yl)-3H-imidazo[4,5-c]pyridin-2-yl)-1H-pyrazolo[4,3-b]pyridin-5-yl)-N-isopropylpyridin-3-amine]",0.646 µM,1.15 µM,2.56 µM,–,–,–
"c1cc(-c2cncc3[nH]c(-c4n[nH]c5ccc(-c6cncc(CNCC7CCCC7)c6)nc45)nc23)co1 [Compound 305, 1-Cyclopentyl-N-((5-(3-(7-(furan-3-yl)-3H-imidazo[4,5-c]pyridin-2-yl)-1H-pyrazolo[4,3-b]pyridin-5-yl)pyridin-3-yl)methyl)methanamine]",4.61 µM,> 10 µM,> 10 µM,24.5%,0%,–
"CN(C)c1cncc(-c2ccc3[nH]nc(-c4nc5c(-c6cccs6)cncc5[nH]4)c3n2)c1 [Compound 315, N,N-Dimethyl-5-(3-(7-(thiophen-2-yl)-3H-imidazo[4,5-c]pyridin-2-yl)-1H-pyrazolo[4,3-b]pyridin-5-yl)pyridin-3-amine]",> 10 µM,> 10 µM,0.031 µM,–,34.3%,43.8%
"Cc1ccc(-c2cncc3[nH]c(-c4n[nH]c5ccc(-c6cncc(N)c6)nc45)nc23)s1 [Compound 367, 5-(3-(7-(5-Methylthiophen-2-yl)-3H-imidazo[4,5-c]pyridin-2-yl)-1H-pyrazolo[4,3-b]pyridin-5-yl)pyridin-3-amine]",0.097 µM,0.815 µM,0.125 µM,–,–,–
"CC(C)Nc1cncc(-c2ccc3[nH]nc(-c4nc5c(-c6cc(F)cc(NCCN(C)C)c6)cncc5[nH]4)c3n2)c1 [Compound 432, N^1-(3-Fluoro-5-(2-(5-(5-(isopropylamino)pyridin-3-yl)-1H-pyrazolo[4,3-b]pyridin-3-yl)-3H-imidazo[4,5-c]pyridin-7-yl)phenyl)-N^2,N^2-dimethylethane-1,2-diamine]",5.36 µM,6.41 µM,2.29 µM,–,–,–
"Cc1ccncc1-c1ccc2[nH]nc(-c3nc4c(-c5cc(F)cc(CNS(C)(=O)=O)c5)cncc4[nH]3)c2n1 [Compound 453, N-(3-Fluoro-5-(2-(5-(4-methylpyridin-3-yl)-1H-pyrazolo[4,3-b]pyridin-3-yl)-3H-imidazo[4,5-c]pyridin-7-yl)benzyl)methanesulfonamide]",> 10 µM,> 10 µM,> 10 µM,23.9%,0%,37.3%
"CN(C)CCOc1cncc(-c2ccc3[nH]nc(-c4nc5c(-c6cccc(F)c6)cncc5[nH]4)c3n2)c1 [Compound 487, 2-((5-(3-(7-(3-Fluorophenyl)-3H-imidazo[4,5-c]pyridin-2-yl)-1H-pyrazolo[4,3-b]pyridin-5-yl)pyridin-3-yl)oxy)-N,N-dimethylethan-1-amine]",5.54 µM,> 10 µM,> 10 µM,33.4%,30.7%,–
